Assays:
Assay type in all cases: functional
[1] = species: Oryctolagus cuniculus; assay: Inhibitory activity on the MDA production at 1 uM
[2] = species: Oryctolagus cuniculus; assay: In vitro antiplatelet activity against arachidonic acid induced malondialdehyde production
[3] = species: Rattus norvegicus; assay: In vitro vasodilatory activity in isolated rat aorta; settings: read-out: ED50 (the source's name)
[4] = test system: Cavia porcellus; assay: Inhibitory effect on platelet aggregation induced by Arachidonic acid (AA) in guinea pigs ex vivo at a dose of 1 mg/Kg after 6 hr of oral administration
[5] = test system: Cavia porcellus; assay: Inhibitory effect on platelet aggregation induced by Collagen in guinea pigs ex vivo at a dose of 1 mg/Kg after 6 hr of oral administration
[6] = test system: Cavia porcellus; assay: Inhibitory effect on platelet aggregation induced by Collagen in guinea pigs ex vivo at a dose of 3.2 mg/Kg after 1 hr of oral administration
[7] = test system: Cavia porcellus; assay: Inhibitory effect on platelet aggregation induced by Arachidonic acid (AA) in guinea pigs ex vivo at a dose of 1 mg/kg after 1 hr of oral administration
[8] = test system: Cavia porcellus; assay: Inhibitory effect on platelet aggregation induced by Arachidonic acid in guinea pigs ex vivo at a dose of 3.2 mg/Kg after 1 hr of oral administration
[9] = test system: Cavia porcellus; assay: Inhibitory effect on platelet aggregation induced by Collagen in guinea pigs ex vivo at a dose of 1 mg/Kg after 1 hr of oral administration
[10] = test system: Rattus norvegicus; assay: Compound was evaluated for collagen-induced platelet aggregation in rat ex vivo at the dose of 32 mg/Kg
[11] = test system: Rattus norvegicus; assay: Induction of acute stomach lesion at a dose of 32 mg/Kg
[12] = test system: Rattus norvegicus; assay: Induction of acute stomach lesion at a dose of 10 mg/Kg
[13] = test system: Rattus norvegicus; assay: Induction of acute stomach lesion at a dose of 320 mg/Kg
[14] = test system: Cavia porcellus; assay: Inhibitory effect on platelet aggregation induced by Arachidonic acid (AA) in guinea pigs ex vivo at a dose of 3.2 mg/Kg after 1 hr of oral administration
[15] = test system: Rattus norvegicus; assay: Induction of acute stomach lesion at a dose of 100 mg/Kg
[16] = test system: Rattus norvegicus; assay: Compound was evaluated for collagen-induced platelet aggregation ex vivo in rat at the dose of 100 mg/Kg
[17] = test system: Cavia porcellus; assay: Inhibitory effect on platelet aggregation induced by Arachidonic acid (AA) in guinea pigs ex vivo at a dose of 1 mg/kg after 6 hr of oral administration
[18] = test system: Cavia porcellus; assay: Inhibitory effect on platelet aggregation induced by Collagen in guinea pigs ex vivo at a dose of 3.2 mg/Kg after 6 hr of oral administration
[19] = test system: Cavia porcellus; assay: Inhibitory effect on platelet aggregation induced by Arachidonic acid (AA) in guinea pigs ex vivo at a dose of 3.2 mg/Kg after 6 hr of oral administration
[20] = species: Oryctolagus cuniculus; assay: Inhibitory activity on the MDA production at 0.01 uM
[21] = test system: Cavia porcellus; assay: Inhibitory effect on platelet aggregation induced by Arachidonic acid (AA) in guinea pigs ex vivo at a dose of 1 mg/Kg after 1 hr of oral administration
[22] = test system: Rattus norvegicus; assay: Induction of acute stomach lesion at a dose of 100 mg/Kg was determined in 5 animals
[23] = test system: Rattus norvegicus; assay: Induction of acute stomach lesion at a dose of 32 mg/Kg was determined in 5 animals
[24] = species: Oryctolagus cuniculus; assay: Inhibitory activity on the MDA production at 0.1 uM
[25] = test system: Cavia porcellus; assay: ccInhibitory effect on platelet aggregation induced by Arachidonic acid (AA) in guinea pigs ex vivo at a dose of 3.2 mg/Kg after 6 hr of oral administration

| Compound | IC50 [2] [nM] | EC50 [3] [nM] | further results |
| --- | --- | --- | --- |
| COc1ccc(-c2nc(/N=C(\N)N3CCOCC3)sc2-c2ccc(OC)cc2)cc1 | < 1000 | 66000 | Inhibition [1]: 79.9% |
| COc1ccc(-c2nc(C(=O)N3CCNC(CCO)C3)sc2-c2ccc(OC)cc2)cc1 (stereo unspecified) | > 1000 | 9500 |  |
| COc1ccc(-c2nc(N3CCN(C)CC3)sc2-c2ccc(OC)cc2)cc1 | 39 | 5200 | inhibition in vivo at 1 mg/kg [4]: 60.9%; inhibition in vivo at 1 mg/kg [5]: 65.4% |
| COc1ccc(-c2nc(/N=C(\N)NC(C)C)sc2-c2ccc(OC)cc2)cc1 | > 100 | 9100 |  |
| CNC(=N)Nc1nc(-c2ccc(OC)cc2)c(-c2ccc(OC)cc2)s1 | 62 | 1200 | Inhibition % [6]: 76.2%; Inhibition % [7]: 100%; Inhibition % [8]: 100%; Inhibition % [9]: 9% |
| COc1ccc(-c2nc(C(=O)N3CCCN(C)CC3)sc2-c2ccc(OC)cc2)cc1 | > 100 | 4300 |  |
| COc1ccc(-c2nc(/N=C(\N)n3ccnc3)sc2-c2ccc(OC)cc2)cc1 | > 100 |  |  |
| COc1ccc(-c2nc(C(=O)N3CCCCC3)sc2-c2ccc(OC)cc2)cc1 | > 1000 | 11000 |  |
| CC/N=C(/N)Nc1nc(-c2ccc(OC)cc2)c(-c2ccc(OC)cc2)s1 | > 100 |  |  |
| CC(=O)Oc1ccccc1C(=O)O [ASPIRIN] | 16000 | > 600000 | ED50 [10]: 8.4 mg/kg; Ulcer index [11]: 2; Inhibition % [6]: 9%; Ulcer index [12]: 0.6; Ulcer index [13]: 3.8; Inhibition % [14]: 64%; Ulcer index [15]: 2.2 |
| COc1ccc(-c2nc(/C=C/C(=O)N3CCN(C)CC3)sc2-c2ccc(OC)cc2)cc1 | > 1000 | 20000 |  |
| CNC(=O)NCc1nc(-c2ccc(OC)cc2)c(-c2ccc(OC)cc2)s1 | 22 | 15000 |  |
| COc1ccc(-c2nc(C(=O)N3CCN(C)CC3)sc2-c2ccc(OC)cc2)cc1 [FR-122047] | 88 |  | ED50 [16]: 1.4 mg/kg; inhibition in vivo at 1 mg/kg [17]: 100%; inhibition in vivo at 3.2 mg/kg [18]: 100%; inhibition in vivo at 1 mg/kg [5]: 83.1%; inhibition in vivo at 3.2 mg/kg [19]: 100%; Ulcer index [15]: 0 |
| COc1ccc(-c2nc(C(=O)N3CCOCC3)sc2-c2ccc(OC)cc2)cc1 | < 10 | < 100000 | Inhibition [20]: 74.8% |
| COc1ccc(-c2nc(C(=O)N=C(N)N)sc2-c2ccc(OC)cc2)cc1 | > 100 | > 100000 |  |
| COc1ccc(-c2nc(CNC(C)=O)sc2-c2ccc(OC)cc2)cc1 | 15 | 8100 | Inhibition % [4]: 60.9%; Inhibition % [5]: 26.6% |
| C/N=C(/NC)Nc1nc(-c2ccc(OC)cc2)c(-c2ccc(OC)cc2)s1 | 970 |  |  |
| COc1ccc(-c2nc(C(F)(F)F)sc2-c2ccc(OC)cc2)cc1 [ITAZIGREL] | 5.6 | > 300000 | Inhibition % [21]: 100%; Inhibition % [4]: 100%; Ulcer index [22]: 1.4; Ulcer index [23]: 0.4; Inhibition % [5]: 79%; Inhibition % [9]: 100% |
| COc1ccc(-c2nc(CCC(=O)O)sc2-c2ccc(OC)cc2)cc1 | < 100 | > 100000 |  |
| CCOC(=O)C1=C(C)N=C(C)/C(=C(/O)OCC)C1c1nc(-c2ccc(OC)cc2)c(-c2ccc(OC)cc2)s1 (stereo unspecified) | < 100 | > 32000 |  |
| COc1ccc(-c2nc(CNC(=O)CSc3ccccc3)sc2-c2ccc(OC)cc2)cc1 | < 100 | 4200 | Inhibition [24]: 73.6%; inhibition in vivo at 1 mg/kg [4]: 16.5%; inhibition in vivo at 1 mg/kg [5]: -2.6% |
| COc1ccc(-c2nc(CNC(=O)C3=NNC(=O)CC3)sc2-c2ccc(OC)cc2)cc1 | 55 |  | inhibition in vivo at 1 mg/kg [4]: 100%; inhibition in vivo at 3.2 mg/kg [18]: 94.1%; inhibition in vivo at 1 mg/kg [5]: 84.3%; inhibition in vivo at 3.2 mg/kg [19]: 100% |
| COc1ccc(-c2nc(/C=C/C(=O)O)sc2-c2ccc(OC)cc2)cc1 | > 100 | 55000 |  |

| Compound | IC50 [2] [nM] | EC50 [3] [nM] | further results |
| --- | --- | --- | --- |
| COc1ccc(-c2nc(C3=CCN(C)CC3)sc2-c2ccc(OC)cc2)cc1 | < 10 | 5900 | inhibition in vivo at 3.2 mg/kg [18]: 69.3%; inhibition in vivo at 3.2 mg/kg [19]: 100% |
| COc1ccc(-c2nc(N=C(N)N)sc2-c2ccc(OC)cc2)cc1 | 31000 | 2000 |  |
| CCOC(=O)CC(c1nc(-c2ccc(OC)cc2)c(-c2ccc(OC)cc2)s1)N1CCN(C)CC1 (stereo unspecified) | > 1000 | 2600 |  |
| COc1ccc(-c2nc(C(=O)N3CCCCC3CCO)sc2-c2ccc(OC)cc2)cc1 (stereo unspecified) | 45 | 6800 | Inhibition % [18]: 100%; Inhibition % [19]: 100% |
| Cc1cc(/N=C(\Nc2nccs2)NC2CCCCC2)c2ccccc2n1 [TIMEGADINE] | 31 | 2500 | Inhibition % [21]: 14.5%; Inhibition % [14]: 52.4% |
| COc1ccc(-c2nc(/N=C(\N)NC3CCCCC3)sc2-c2ccc(OC)cc2)cc1 | > 1000 | > 100000 |  |
| CCN(CC)C(=O)c1nc(-c2ccc(OC)cc2)c(-c2ccc(OC)cc2)s1 | < 10 | 14000 | Inhibition [20]: 65% |
| COc1ccc(-c2nc(CNC(=O)N3CCOCC3)sc2-c2ccc(OC)cc2)cc1 | 660 | 12000 |  |
| CCOC(=O)/C=C/c1nc(-c2ccc(OC)cc2)c(-c2ccc(OC)cc2)s1 | 20 | > 100000 |  |
| COc1ccc(-c2nc(C(N)=O)sc2-c2ccc(OC)cc2)cc1 | > 1000 |  |  |
| COc1ccc(-c2nc(CN(C)C)sc2-c2ccc(OC)cc2)cc1 | 96 | 8400 | Inhibition % [6]: 100%; Inhibition % [18]: 0%; Inhibition % [14]: 100%; Inhibition % [19]: 0% |
| COc1ccc(-c2nc(C(=O)NCCc3cccnc3)sc2-c2ccc(OC)cc2)cc1 | < 100 | 20000 | Inhibition [24]: 56.6% |
| COc1ccc(-c2nc(C3=NNC(=O)CC3)sc2-c2ccc(OC)cc2)cc1 | > 1000 |  |  |
| COc1ccc(-c2nc(CN)sc2-c2ccc(OC)cc2)cc1 | > 100 | 7700 |  |
| COc1ccc(-c2nc(C(=O)N(C)C)sc2-c2ccc(OC)cc2)cc1 | < 100 |  | Inhibition [24]: 51.4%; inhibition in vivo at 3.2 mg/kg [18]: 4.1%; inhibition in vivo at 3.2 mg/kg [19]: 89% |
| COc1ccc(-c2nc(CNC(=O)CSC)sc2-c2ccc(OC)cc2)cc1 | < 100 | 6000 | Inhibition [24]: 73.3%; inhibition in vivo at 1 mg/kg [4]: -3.9%; inhibition in vivo at 1 mg/kg [5]: -13.3% |
| COc1ccc(-c2nc(C(=O)NCCN3CCOCC3)sc2-c2ccc(OC)cc2)cc1 | > 1000 | 8700 |  |
| COc1ccc(-c2nc(C(=O)N3CCN(C(=O)NC(C)C)CC3)sc2-c2ccc(OC)cc2)cc1 | > 1000 | 15000 |  |
| COc1ccc(-c2nc(CNC(=O)c3cccnc3)sc2-c2ccc(OC)cc2)cc1 | 25 |  | Inhibition % [18]: 37.4%; Inhibition % [19]: 40.3% |
| COc1ccc(-c2nc(CNC(=O)NC(C)C)sc2-c2ccc(OC)cc2)cc1 | 42 | 5700 | inhibition in vivo at 3.2 mg/kg [25]: 100%; inhibition in vivo at 1 mg/kg [4]: 100%; inhibition in vivo at 3.2 mg/kg [18]: 100%; inhibition in vivo at 1 mg/kg [5]: 100% |
| CCOC(=O)/C(C#N)=C/c1nc(-c2ccc(OC)cc2)c(-c2ccc(OC)cc2)s1 | < 10 | > 100000 |  |
| COc1ccc(-c2nc(/N=C(\N)N(C)C)sc2-c2ccc(OC)cc2)cc1 | 37 |  | Inhibition % [21]: 48.5%; Inhibition % [6]: 100%; Inhibition % [18]: 98%; Inhibition % [14]: 100%; Inhibition % [19]: 100%; Inhibition % [9]: 33.1% |
